Target: T1, Murine PKD1 kinase domain (Mus musculus, UniProt Q62101)
T1 construct: hexahistidine (pFastBac HTb leader) (N); made in house; host or cells: Sf9 insect cells, baculovirus (Bac-to-Bac HT, pFastBac HTb)
T1 sequence (Q62101 with tags, fused parts or gaps R683W): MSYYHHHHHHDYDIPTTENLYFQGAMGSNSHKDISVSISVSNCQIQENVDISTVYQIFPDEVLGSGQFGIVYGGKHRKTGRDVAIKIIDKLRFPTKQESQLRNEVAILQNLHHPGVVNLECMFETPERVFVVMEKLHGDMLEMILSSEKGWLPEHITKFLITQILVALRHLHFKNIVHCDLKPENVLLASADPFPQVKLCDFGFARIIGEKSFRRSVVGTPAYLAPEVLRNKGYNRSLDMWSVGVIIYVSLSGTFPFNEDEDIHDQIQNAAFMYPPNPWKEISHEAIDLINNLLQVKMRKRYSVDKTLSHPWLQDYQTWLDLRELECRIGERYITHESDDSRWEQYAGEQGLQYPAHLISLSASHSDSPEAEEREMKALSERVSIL
Assay: PKD1 (Murine Kinase Domain) Enzyme Activity Assay (IMAP fluorescence polarisation)
Format: biochemical
Settings: 10 μM ATP, 60 minutes, room temperature

| Compound | IC50 |
| --- | --- |
| CN(C)CCNC(=O)c1cccc(-c2cnc(N)c(-c3ccnc(Cl)c3)c2)c1 [Y-085, 3-(2-Amino-2′-chloro-[3,4′]bipyridinyl-5-yl)-N-(2-dimethylamino-ethyl)-benzamide] | < 1000 nM |
| CSc1nccc(-c2cc(-c3cccc(C(=O)NCCN(C)C)c3)cnc2N)n1 [Y-086, 3-[6-Amino-5-(2-methylsulfanyl-pyrimidin-4-yl)-pyridin-3-yl]-N-(2-dimethylamino-ethyl)-benzamide] | < 1000 nM |
| COc1ccc2cc(-c3cc(-c4cccc(C(=O)NCCN(C)C)c4)cnc3N)ccc2c1 [Y-087, 3-[6-Amino-5-(6-methoxy-naphthalen-2-yl)-pyridin-3-yl]-N-(2-dimethylamino-ethyl)-benzamide] | < 1000 nM |
| COc1cc(-c2cc(-c3cccc(C(=O)NCCN(C)C)c3)cnc2N)cc(OC)c1OC [Y-088, 3-[6-Amino-5-(3,4,5-trimethoxy-phenyl)-pyridin-3-yl]-N-(2-dimethylamino-ethyl)-benzamide] | < 1000 nM |
| COc1cncc(-c2cc(-c3cccc(C(=O)NCCN(C)C)c3)cnc2N)c1 [Y-089, 3-(2-Amino-5′-methoxy-[3,3′]bipyridinyl-5-yl)-N-(2-dimethylamino-ethyl)-benzamide] | < 1000 nM |
| CN(C)CCNC(=O)c1cccc(-c2cnc(N)c(-c3cnc4ccccc4c3)c2)c1 [Y-090, 3-(6-Amino-5-quinolin-3-yl-pyridin-3-yl)-N-(2-dimethylamino-ethyl)-benzamide] | < 1000 nM |
| CN(C)CCNC(=O)c1cccc(-c2cnc(N)c(-c3ccc4nccnc4c3)c2)c1 [Y-091, 3-(6-Amino-5-quinoxalin-6-yl-pyridin-3-yl)-N-(2-dimethylamino-ethyl)-benzamide] | < 1000 nM |
| COc1cccc(-c2cc(-c3cccc(C(=O)NC(C)CN(C)C)c3)cnc2N)c1 (centres unmarked) [Y-092, 3-[6-Amino-5-(3-methoxy-phenyl)-pyridin-3-yl]-N-(2-dimethylamino-1-methyl-ethyl)-benzamide] | < 1000 nM |
| COc1cc(-c2cc(-c3cccc(C(=O)NCCN(C)C)c3)cnc2N)ncn1 [Y-093, 3-[6-Amino-5-(6-methoxy-pyrimidin-4-yl)-pyridin-3-yl]-N-(2-dimethylamino-ethyl)-benzamide] | < 1000 nM |
| CN(C)CCNC(=O)c1cccc(-c2cnc(N)c(-c3ccc4[nH]ncc4c3)c2)c1 [Y-094, 3-[6-Amino-5-(1H-indazol-5-yl)-pyridin-3-yl]-N-(2-dimethylamino-ethyl)-benzamide] | < 1000 nM |
| CCN(CC)CCNC(=O)c1cccc(-c2cnc(N)c(-c3cccc(OC)c3)c2)c1 [Y-096, 3-[6-Amino-5-(3-methoxy-phenyl)-pyridin-3-yl]-N-(2-diethylamino-ethyl)-benzamide] | < 1000 nM |

From US20110098325A1, “PYRIDINE BENZAMIDES AND PYRAZINE BENZAMIDES USED AS PKD INHIBITORS” (CANCER RESEARCH TECHNOLOGY LIMITED, priority 2006, published 2011)
